Assay [1] concerns Aspergillus niger. The assay is described as follows: Inhibition of Aspergillus niger amyloglucosidase at 1000 uM.
Assay [2] is described as follows: Inhibition of rhizopus amyloglucosidase.
For another assay, the species on record is Sus scrofa. The assay is described as follows: Inhibition of porcine kidney alpha,alpha-trehalase at 1000 uM.
The next assay relates to Escherichia coli. Description: Inhibition of Escherichia coli beta-glucuronidase at 1000 uM.
For assay [3], the target named is T1, Beta-glucuronidase (Bos taurus) (UniProt A3KMY8).
T1 sequence (whole entry): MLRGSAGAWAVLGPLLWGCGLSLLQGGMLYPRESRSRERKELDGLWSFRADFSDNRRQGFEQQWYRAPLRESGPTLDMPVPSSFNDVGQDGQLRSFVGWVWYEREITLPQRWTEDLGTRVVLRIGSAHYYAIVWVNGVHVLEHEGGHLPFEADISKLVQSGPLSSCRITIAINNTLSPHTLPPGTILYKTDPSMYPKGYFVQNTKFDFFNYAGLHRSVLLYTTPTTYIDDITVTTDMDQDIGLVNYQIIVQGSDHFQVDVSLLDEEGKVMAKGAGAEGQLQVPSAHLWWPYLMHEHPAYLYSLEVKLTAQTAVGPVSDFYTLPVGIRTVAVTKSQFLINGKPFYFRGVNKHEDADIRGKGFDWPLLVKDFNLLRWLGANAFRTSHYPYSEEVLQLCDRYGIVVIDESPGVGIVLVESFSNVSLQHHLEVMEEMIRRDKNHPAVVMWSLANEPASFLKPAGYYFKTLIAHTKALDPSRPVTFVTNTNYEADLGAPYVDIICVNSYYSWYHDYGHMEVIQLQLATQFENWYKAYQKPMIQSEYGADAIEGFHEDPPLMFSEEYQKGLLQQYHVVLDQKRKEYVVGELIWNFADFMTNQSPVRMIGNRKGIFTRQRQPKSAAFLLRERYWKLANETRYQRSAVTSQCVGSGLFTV
Description: Inhibition of bovine liver beta-glucuronidase at 1000 uM.

The target in assay [4] is T2, Tissue alpha-L-fucosidase (Bos taurus) (UniProt Q2KIM0).
T2 sequence (whole entry): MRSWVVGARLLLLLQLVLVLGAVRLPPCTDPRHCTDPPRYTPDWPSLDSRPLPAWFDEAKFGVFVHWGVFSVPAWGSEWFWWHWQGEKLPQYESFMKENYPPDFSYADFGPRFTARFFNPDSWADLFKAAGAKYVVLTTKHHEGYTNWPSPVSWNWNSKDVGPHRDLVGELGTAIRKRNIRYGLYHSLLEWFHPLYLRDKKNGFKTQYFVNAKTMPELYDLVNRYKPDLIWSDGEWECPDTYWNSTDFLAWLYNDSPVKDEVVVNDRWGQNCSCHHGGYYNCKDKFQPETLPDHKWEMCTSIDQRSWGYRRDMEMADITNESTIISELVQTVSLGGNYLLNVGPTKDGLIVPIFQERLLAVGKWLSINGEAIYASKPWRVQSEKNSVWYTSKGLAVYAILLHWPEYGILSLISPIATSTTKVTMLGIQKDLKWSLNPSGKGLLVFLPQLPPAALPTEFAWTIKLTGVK
Description: Inhibition of bovine alpha-L-fucosidase at 1000 uM.

Another assay deals with Penicillium decumbens. The assay is described as follows: Inhibition of Penicillium decumbens alpha-L-rhamnosidase at 1000 uM.
For the next assay, the system named is Helix pomatia. Description: Inhibition of snail beta-mannosidase at 1000 uM.
Assay [5] in a line: Inhibition of rat beta-galactosidase.
In assay [6] the target is T3, Glucosylceramidase (Bos taurus) (UniProt Q2KHZ8).
T3 sequence (whole entry): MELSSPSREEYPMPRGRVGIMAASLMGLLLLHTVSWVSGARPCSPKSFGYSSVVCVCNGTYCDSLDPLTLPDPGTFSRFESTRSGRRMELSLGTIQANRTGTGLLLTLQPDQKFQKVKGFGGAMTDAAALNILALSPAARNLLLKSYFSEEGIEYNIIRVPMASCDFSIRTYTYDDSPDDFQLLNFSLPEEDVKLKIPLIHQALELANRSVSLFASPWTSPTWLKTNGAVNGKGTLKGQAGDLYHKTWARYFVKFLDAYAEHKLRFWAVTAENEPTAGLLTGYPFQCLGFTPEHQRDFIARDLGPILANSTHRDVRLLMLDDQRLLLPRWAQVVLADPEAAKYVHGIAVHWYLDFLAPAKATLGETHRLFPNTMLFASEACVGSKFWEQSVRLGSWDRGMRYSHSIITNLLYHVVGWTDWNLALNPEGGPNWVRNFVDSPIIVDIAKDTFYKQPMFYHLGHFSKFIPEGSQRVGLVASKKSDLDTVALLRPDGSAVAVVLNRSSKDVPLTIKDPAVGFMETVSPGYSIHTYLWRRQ
The assay is described as follows: Inhibition of bovine liver beta-glucosidase at 1000 uM.

Assay [7] addresses T4, Beta-galactosidase (Bos taurus) (UniProt Q58D55).
T4 sequence (whole entry): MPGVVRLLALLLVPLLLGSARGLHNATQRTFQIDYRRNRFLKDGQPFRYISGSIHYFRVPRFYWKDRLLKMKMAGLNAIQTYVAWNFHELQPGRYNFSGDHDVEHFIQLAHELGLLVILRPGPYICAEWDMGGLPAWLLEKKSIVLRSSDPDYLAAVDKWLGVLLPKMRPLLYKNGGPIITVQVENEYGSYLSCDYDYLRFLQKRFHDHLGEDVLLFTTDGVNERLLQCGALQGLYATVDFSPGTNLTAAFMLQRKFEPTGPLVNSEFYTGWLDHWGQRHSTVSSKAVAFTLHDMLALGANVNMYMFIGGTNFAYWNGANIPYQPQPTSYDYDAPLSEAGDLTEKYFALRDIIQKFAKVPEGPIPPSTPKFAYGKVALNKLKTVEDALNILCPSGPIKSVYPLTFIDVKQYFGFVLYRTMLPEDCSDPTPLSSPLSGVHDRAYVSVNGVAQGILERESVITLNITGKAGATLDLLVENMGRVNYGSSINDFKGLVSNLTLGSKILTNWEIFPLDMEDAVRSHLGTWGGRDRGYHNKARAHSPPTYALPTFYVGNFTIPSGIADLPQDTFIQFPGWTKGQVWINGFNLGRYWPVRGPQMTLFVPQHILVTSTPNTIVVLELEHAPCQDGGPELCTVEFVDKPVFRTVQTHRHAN
The assay is described as follows: Inhibition of bovine liver beta-galactosidase at 1000 uM.

The next assay has as its system Coffea. Description: Inhibition of coffee beans alpha-galactosidase at 1000 uM.
Assay [8] has as its system Aspergillus niger. Description: Inhibition of Aspergillus niger beta-glucosidase at 1000 uM.
A further assay has as its system Prunus dulcis. Description: Inhibition of almond beta-glucosidase at 1000 uM.
The target of assay [9] is T5, Alpha-glucosidase (Aspergillus niger) (UniProt P56526).
T5 sequence (whole entry): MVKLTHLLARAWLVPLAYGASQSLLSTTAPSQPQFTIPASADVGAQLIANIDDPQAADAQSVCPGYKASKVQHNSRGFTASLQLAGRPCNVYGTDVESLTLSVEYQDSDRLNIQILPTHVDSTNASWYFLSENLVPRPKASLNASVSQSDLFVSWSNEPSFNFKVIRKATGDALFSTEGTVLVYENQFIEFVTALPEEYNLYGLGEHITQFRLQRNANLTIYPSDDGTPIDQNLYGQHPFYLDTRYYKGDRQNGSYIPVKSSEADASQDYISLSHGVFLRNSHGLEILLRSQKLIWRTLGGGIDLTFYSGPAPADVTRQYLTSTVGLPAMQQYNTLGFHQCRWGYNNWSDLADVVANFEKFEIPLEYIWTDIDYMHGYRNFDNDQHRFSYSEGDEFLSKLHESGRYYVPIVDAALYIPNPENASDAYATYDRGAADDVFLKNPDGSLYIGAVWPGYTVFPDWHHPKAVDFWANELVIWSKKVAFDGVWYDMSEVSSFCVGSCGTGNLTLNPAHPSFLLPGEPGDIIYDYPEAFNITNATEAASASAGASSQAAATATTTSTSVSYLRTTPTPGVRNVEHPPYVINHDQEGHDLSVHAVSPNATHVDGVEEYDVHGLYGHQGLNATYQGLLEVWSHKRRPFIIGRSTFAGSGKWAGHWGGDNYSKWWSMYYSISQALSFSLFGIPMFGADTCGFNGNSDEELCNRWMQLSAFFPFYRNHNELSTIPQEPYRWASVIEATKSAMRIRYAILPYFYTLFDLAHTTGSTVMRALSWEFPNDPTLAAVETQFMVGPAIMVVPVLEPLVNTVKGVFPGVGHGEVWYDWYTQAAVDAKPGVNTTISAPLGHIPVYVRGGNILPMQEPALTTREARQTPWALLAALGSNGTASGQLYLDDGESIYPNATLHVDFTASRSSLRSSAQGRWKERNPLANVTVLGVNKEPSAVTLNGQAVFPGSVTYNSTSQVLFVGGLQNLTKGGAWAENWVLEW
Description: Inhibition of Aspergillus niger alpha-glucosidase at 1000 uM.

The test system of another assay is Saccharomyces cerevisiae. Description: Inhibition of yeast alpha-glucosidase at 1000 uM.
Assay [10] is filed under the species Rattus norvegicus. The assay is described as follows: Inhibition of rat intestinal alpha-glucosidase at 1000 uM.
The next assay has as its system Oryza sativa. Description: Inhibition of rice alpha-glucosidase at 1000 uM.
Assay [11] is described as follows: Inhibition of Aspergillus niger amyloglucosidase.
Assay [12] in a line: Inhibition of Penicillium decumbens alpha-L-rhamnosidase.
Assay [13] in a line: Inhibition of almond beta-glucosidase. On the set-up: species or system Prunus dulcis.
The next assay has as its target T6, Alpha-glucosidase (Aspergillus niger, UniProt P56526).
T6 sequence (P56526 whole entry): T5 sequence (whole entry)
The assay is described as follows: Inhibition of Aspergillus niger alpha-glucosidase.

A short description of assay [14]: Inhibition of rat intestinal alpha-glucosidase.
For assay [15], the species on record is Rattus norvegicus. The assay is described as follows: Inhibition of rat intestinal beta-galactosidase at 1000 uM.

The term inhibition denotes the share of the control response that was lost under treatment. Read a low inhibition as a response near the control. Broadly, the IC50 is the point on the concentration scale where inhibition reaches its midpoint. A high value points to a need for much substance. With `O[C@@H]1[C@H](O)[C@H]2[C@@H](O)CN2C[C@H]1O` [(3R,4S,5R,6R,7S)-3,4,5,7-TETRAHYDROXYCONIDINE], the inhibition is 31.3% in the assay on Aspergillus niger [1]; 9% in the assay filed under Sus scrofa; 0% in the assay on Escherichia coli; 7.8% in assay [3]; 2% in assay [4]; 2% with Penicillium decumbens. The inhibition in the assay with Helix pomatia is 0%; in assay [6], 18.9%; in assay [7], 43.4%; in the assay on Coffea, 3.5%; in the assay with Aspergillus niger [8] it was 1.8%; in the assay on Prunus dulcis, 31.1%. The inhibition in [9] was found to be 47.3%; with Saccharomyces cerevisiae, 0%; in the assay filed under Rattus norvegicus [10], 30.3%; in the assay on Oryza sativa it was 13.8%. The values for the IC50 in assay [2] and in [5] were 532 µM and 418 µM, respectively.

`O[C@H]1[C@H](O)[C@@H](O)CN2CC[C@H](O)[C@H]12` [CASTANOSPERMINE] gave an IC50 in [11] of 8 µM.

`O[C@@H]1[C@H](O)[C@H]2[C@@H](O)CCN2C[C@H]1O` showed an IC50 in assay [11] of 8 µM.

Take `OC[C@H](O)[C@@H]1NC[C@@H]1O`: the IC50 in assay [2] worked out at 19 µM; in assay [11], 105 µM; in assay [12], 634 µM; in assay [5], 70 µM; in assay [13], 347 µM; on Alpha-glucosidase, 39 µM. The compound also yielded an IC50 in [14] of 607 µM. For the same compound, the inhibition in the assay filed under Sus scrofa amounted to 5.8%; with Escherichia coli, 0%; in assay [3], 7.4%; in [4], 4.6%; in the assay with Helix pomatia, 0%; in assay [7], 25.2%. The inhibition in the assay with Coffea was found to be 7.6%; with Aspergillus niger [8], 0.4%; in the assay on Saccharomyces cerevisiae it was 16%; in the assay with Oryza sativa it was 12.1%.

Consider `O[C@H]1CCCN2C[C@H](O)[C@H]12`, for which the IC50 amounted to 243 µM in assay [2], 930 µM in assay [11], 117 µM in assay [12] and 307 µM against Alpha-glucosidase. Further, the inhibition in the assay filed under Sus scrofa was 1%; in the assay with Escherichia coli, 13.2%; in [3], 0%; in [4], 0%; in the assay with Helix pomatia, 0%; in [6] it was 9.7%. Also, the inhibition is 32.2% in the assay listed under Rattus norvegicus [15]; 14% in [7]; 8.4% with Coffea; 0% with Aspergillus niger [8]; 0% with Prunus dulcis; 1.6% in the assay on Saccharomyces cerevisiae. For the same compound, the inhibition in the assay listed under Rattus norvegicus [10] was 14.3%; in the assay on Oryza sativa, 0%.

Regarding `O[C@H]1[C@H](O)CN2CCCC[C@H]12` [(-)-LENTIGINOSINE], the midpoint of inhibition in assay [11], the IC50, lay at 32 µM.

Source of the values: ChEMBL document CHEMBL2407027, “(3R,4S,5R,6R,7S)-3,4,5,7-Tetrahydroxyconidine, an azetidine analogue of 6,7-diepicastanospermine and a conformationally constrained d-deoxyaltronojirimycin, from l-arabinose” (Bioorg Med Chem, 2013).
